The values below come from patent US11702393B2, “Synthesis of a monoacylglycerol lipase inhibitor” (H. LUNDBECK A/S, priority 2020, dated 2023).

Data set [1] can be described thus: Particle size distribution determination by image analysis (Morphologi G3). In kind it is physicochemical. The text has this:
The term “particle size distribution” (PSD) as used herein refers to the mean particle size from a statistical distribution of a range of particle sizes. The Compound I-HCl form 2 particle size distribution, in particular d90, d50, d10 values, may be determined by well-known methods of the prior art such as sieve analysis, laser diffraction methods, image analysis or optical counting methods.
As used herein, by “d90 particle size” refers to the particle diameter wherein 90 percent of the particle population has a diameter below such value.
As used herein, by “d50 particle size” refers to the median particle diameter, wherein half of the particle population has a diameter below such value.
As used herein, by “d10 particle size” refers to the particle diameter wherein 10 percent of the particle population has a diameter below such value.
The analysis of particle size distribution of each batch was performed by an image analysis method on a Morphologi G3 Automated Particle Characterization System (Malvern PaNanalytical) with a sample Dispersion Unit SDU Glass Plate (180×110 mm); the instrument automatically process the collected data using the software Morphologi ver. 8.20 and provides a cumulative distribution curve and results in terms of d10, d50 and d90.

For data set [2] the following is noted: process described in the prior art (WO2018/093953); cited from earlier work.
[3] abbreviates: made according to Example 13, not milled.
The mark [4] stands for this setting: made from Example 13, after milling (hammer mill, Example 14).

Like-named read-outs stand apart in the source and are kept apart here.

Regarding `Cl.O=C(OC(C(F)(F)F)C(F)(F)F)N1CCN(Cc2ccc(C(F)(F)F)cc2N2CCCC2)CC1` [Compound I-HCl form 2, 1,1,1,3,3,3-hexafluoropropan-2-yl 4-(2-(pyrrolidin-1-yl)-4-(trifluoromethyl)benzyl)piperazine-1-carboxylate mono-hydrochloride salt Form 2], in data set [1] (setting [3]), the d10 particle size result is “d10 53.5 μm”, the d50 particle size result is listed as “d50 133.1 μm” and the d90 particle size entry is “d90 201.7 μm”. Also, in data set [1] (setting [4]), the d10 particle size result is listed as “d10 24 μm”, the d50 particle size entry is given as “d50 67 μm” and the d90 particle size entry is “d90 175 μm”. Moreover, in data set [2], the d10 particle size was at least 5 µm and the d90 particle size result is listed as “up to 300 μm”.
